Measured values as given in patent US11407724B2, “Process for the production of cannabinoids” (Bessor Pharma, LLC, priority 2018, dated 2022).

Test system: TRPV 1 channels
Assay: Calcium assay (Fluo-4) in HEK-TRPV1 cells, dose response comparison
Format: cell-based
Settings: Fluo-4 loaded, 1 mM external calcium chloride, 0-20 seconds baseline, compound added at 20 seconds, synthesized vs Sigma-sourced CBD (FIGS. 1A-1D)
Experimental: Molecular Pharmacology, 2016, volume 90, pages 300-308) HEK 293 cells with TRPV1 channels have been used as model systems (P. Geppetti and M. Trevisani, Activation and sensitisation of the vanilloid receptor: role in gastrointestinal inflammation and function, British Journal of Pharmacology, 2004, volume 141, pages 1313-1320);
HEK TRexTRPV1 cultured in DMEM, 10% Fetal Bovine Serum, 2 mM L-glutamine, 10 microgramg/ml Blasticidin (Calbiochem, San Diego Calif.), […] Zeocin (InvivoGen, San Diego Calif.), followed by inducing indicated transgene expression using 1 microgram/ml Tetracycline for 16-24 hrs. Comparisons made to untransfected HEK cells or HEKTRexTRPV1 with or without induction.
Cells washed and incubated with 0.2 micromolar Fluo-4 [54] for 30 minutes at 37° C. in a standard modified Ringer's solution of the following composition (in mM): NaCl 145, KCl 2.8, CsCl 10, CaCl2 10, MgCl2 2, glucose 10, Hepes-NaOH 10, pH 7.4, 330 mOsm. Cells transferred to 96-well plates at 50,000 cells/well and stimulated as indicated. Calcium signals acquired using a Flexstation 3 (Molecular Devices, Sunnydale, USA). Data are analyzed according to the methods in I. Díaz-Franulic, J. Caceres-Molina, R. V. Sepulveda, F. Gonzalez-Nilo, R. Latorre, Structure-Driven Pharmacology of Transient Receptor Potential Channel Vanilloid 1, Molecular Pharmacology, 2016, volume 90, pages 300-8. […]

Compound: C=C(C)[C@@H]1CCC(C)=C[C@H]1c1c(O)cc(CCCCC)cc1O [cannabidiol (11, CBD), Cannabidiol]
- “biological finger print” and dose response on TRPV 1 channels: the same “biological finger print” and dose response
